Here are results for 2 molecules from BindingDB's records for PubMed 9353361 (National Institute of Diabetes and Digestive and Kidney …, 1997).

The structures appear in SMILES notation. Values joined by “and” are separate entries in the source; they are usually repeats but may differ in a detail not shown here. Equal values may be shown once.

The target in the assay is Gamma-aminobutyric acid receptor subunit alpha-5 (Rattus norvegicus, UniProt P19969).
Gamma-aminobutyric acid receptor subunit alpha-5, sequence (P19969 whole entry): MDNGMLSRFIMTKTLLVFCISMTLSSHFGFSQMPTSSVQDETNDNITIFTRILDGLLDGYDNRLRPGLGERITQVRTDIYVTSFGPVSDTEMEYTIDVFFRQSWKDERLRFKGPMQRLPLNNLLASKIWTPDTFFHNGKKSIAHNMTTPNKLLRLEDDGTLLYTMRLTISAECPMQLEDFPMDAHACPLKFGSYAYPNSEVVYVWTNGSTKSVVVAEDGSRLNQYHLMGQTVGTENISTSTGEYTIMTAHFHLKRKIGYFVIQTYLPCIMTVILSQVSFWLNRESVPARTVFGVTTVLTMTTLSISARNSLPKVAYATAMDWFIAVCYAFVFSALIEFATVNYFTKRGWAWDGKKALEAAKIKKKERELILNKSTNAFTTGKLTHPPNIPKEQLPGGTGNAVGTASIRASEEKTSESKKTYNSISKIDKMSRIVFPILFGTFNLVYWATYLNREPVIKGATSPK

On to `CN1Cc2c(C(=O)OC(C)(C)C)ncn2-c2ccc(C#C[Si](C)(C)C)cc2C1=O`, for which the Ki was 1.03 nM and 0.83 nM.
For `CN1C(=O)CN=C(c2ccccc2)c2cc(C#N)ccc21` the value was 34 nM.
